Reference: US20240217990A1 (Gilead Sciences, Inc., priority 2021, published 2024)

Legend:
[1] = biological target: T1, TLR7 (Homo sapiens, UniProt Q9NYK1); test: TLR7 human PBMC cell-based assay (antagonist, GS-986 stimulated cytokine release); conditions: human PBMCs; TLR7 agonist GS-986 400 nM, 6 hours; cytokines (IL-6 and IFNα) in supernatant; read-out: TLR-7 EC50
T1 construct: Human peripheral blood mononuclear cells (PBMCs) consist of lymphocytes, monocytes and dendritic cells that express TLR7, TLR8 and TLR9; endogenous in cells; host or cells: cryopreserved human PBMCs from healthy donors
T1 sequence (Q9NYK1 27-1049): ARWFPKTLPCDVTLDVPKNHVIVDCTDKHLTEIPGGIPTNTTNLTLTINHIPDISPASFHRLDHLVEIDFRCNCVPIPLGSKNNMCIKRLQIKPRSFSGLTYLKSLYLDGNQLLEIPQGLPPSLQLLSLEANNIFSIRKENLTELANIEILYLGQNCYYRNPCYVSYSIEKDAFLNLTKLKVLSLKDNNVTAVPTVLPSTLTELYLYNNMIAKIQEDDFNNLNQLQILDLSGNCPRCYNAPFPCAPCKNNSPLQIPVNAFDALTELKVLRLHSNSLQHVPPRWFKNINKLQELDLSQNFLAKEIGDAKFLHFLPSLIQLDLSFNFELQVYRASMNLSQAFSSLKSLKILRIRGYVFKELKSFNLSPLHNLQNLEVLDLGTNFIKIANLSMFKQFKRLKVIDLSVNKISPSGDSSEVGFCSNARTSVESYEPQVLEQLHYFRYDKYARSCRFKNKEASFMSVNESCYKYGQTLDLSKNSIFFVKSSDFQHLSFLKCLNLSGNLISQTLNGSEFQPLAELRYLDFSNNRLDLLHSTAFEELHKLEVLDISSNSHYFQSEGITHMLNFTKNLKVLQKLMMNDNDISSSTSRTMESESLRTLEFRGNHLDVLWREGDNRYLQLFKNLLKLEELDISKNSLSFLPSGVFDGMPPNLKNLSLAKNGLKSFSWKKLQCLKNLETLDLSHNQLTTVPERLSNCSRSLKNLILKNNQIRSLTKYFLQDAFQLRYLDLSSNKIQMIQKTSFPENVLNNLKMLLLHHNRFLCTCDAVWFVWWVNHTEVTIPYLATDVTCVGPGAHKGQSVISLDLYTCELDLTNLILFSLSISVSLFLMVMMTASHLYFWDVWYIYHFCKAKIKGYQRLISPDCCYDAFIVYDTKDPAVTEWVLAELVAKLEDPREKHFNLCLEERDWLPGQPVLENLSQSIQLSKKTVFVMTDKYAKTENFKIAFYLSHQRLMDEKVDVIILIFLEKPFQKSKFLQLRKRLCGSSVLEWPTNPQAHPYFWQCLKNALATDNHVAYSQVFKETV
Summary of the method: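 Cryopreserved healthy-donor PBMCs (100,000/well, RPMI-1640 + 10% FBS) pre-incubated 1 h at 37 °C with antagonist (10-point dose response, quadruplicate), then stimulated 6 h with GS-986 at 400 nM final. Supernatant IL-6 and IFNα measured by electrochemiluminescence immunoassay; EC50 from sigmoidal fit.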

[2] = biological target: T2, TLR8 (Homo sapiens, UniProt Q9NR97); test: TLR8 human PBMC cell-based assay (antagonist, Compound A stimulated cytokine release); conditions: human PBMCs; TLR8 agonist Compound A 800 nM, 6 hours; cytokines (TNFa and IL 12p40) in supernatant; read-out: TLR-8 EC50
T2 construct: Human peripheral blood mononuclear cells (PBMCs) consist of lymphocytes, monocytes and dendritic cells that express TLR7, TLR8 and TLR9; endogenous in cells; host or cells: cryopreserved human PBMCs from healthy donors
T2 sequence (Q9NR97 27-1041): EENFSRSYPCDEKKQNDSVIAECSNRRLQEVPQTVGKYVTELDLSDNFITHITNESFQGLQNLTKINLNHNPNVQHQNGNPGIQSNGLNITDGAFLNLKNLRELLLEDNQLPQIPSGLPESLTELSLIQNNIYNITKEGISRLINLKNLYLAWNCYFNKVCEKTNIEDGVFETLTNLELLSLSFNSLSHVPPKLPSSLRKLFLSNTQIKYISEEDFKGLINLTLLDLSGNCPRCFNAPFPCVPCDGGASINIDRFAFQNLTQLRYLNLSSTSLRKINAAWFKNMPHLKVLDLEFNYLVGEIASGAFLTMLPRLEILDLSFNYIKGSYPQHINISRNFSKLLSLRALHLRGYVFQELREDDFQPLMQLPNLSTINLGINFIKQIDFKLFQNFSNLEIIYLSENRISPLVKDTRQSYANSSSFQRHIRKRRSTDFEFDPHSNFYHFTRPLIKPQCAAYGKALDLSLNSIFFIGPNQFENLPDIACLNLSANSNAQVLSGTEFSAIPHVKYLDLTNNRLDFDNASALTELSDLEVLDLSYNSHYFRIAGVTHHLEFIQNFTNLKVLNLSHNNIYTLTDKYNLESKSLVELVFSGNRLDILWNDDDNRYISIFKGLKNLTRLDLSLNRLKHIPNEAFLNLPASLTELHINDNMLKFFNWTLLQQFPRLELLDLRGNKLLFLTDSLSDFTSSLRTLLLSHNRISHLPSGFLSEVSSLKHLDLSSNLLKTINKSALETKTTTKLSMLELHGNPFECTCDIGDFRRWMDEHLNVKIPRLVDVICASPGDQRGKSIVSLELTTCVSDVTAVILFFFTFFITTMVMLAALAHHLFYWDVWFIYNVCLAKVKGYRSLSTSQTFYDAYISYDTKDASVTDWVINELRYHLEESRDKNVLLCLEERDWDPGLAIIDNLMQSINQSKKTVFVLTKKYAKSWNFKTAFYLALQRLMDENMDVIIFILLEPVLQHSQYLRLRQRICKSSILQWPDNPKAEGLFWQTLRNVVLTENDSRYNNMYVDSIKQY
Summary of the method: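 Cryopreserved donor PBMCs (100,000/well, RPMI + 10% FBS) were preincubated 1 h with antagonist (10-point dose response, quadruplicate), then stimulated with Compound A (800 nM final) for 6 h at 37 °C. TNFa and IL-12p40 in supernatants were measured by electrochemiluminescence; sigmoidal fits gave EC50.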

Compound	EC50 [1]	EC50 [2]
Cc1cc(-c2[nH]c3cc(C(=O)N(C)C4CCC(N5CC6(C5)CS(=O)(=O)C6)CC4)sc3c2C(C)C)cn2ncnc12 (stereo not drawn) [Example 252]	9.6 nM	11.2 nM
Cc1cc(-c2[nH]c3cc(-c4nc5ccccc5[nH]4)sc3c2C(C)C)cn2ncnc12 [Example 235, 2-(1H-benzo[d]imidazol-2-yl)-6-isopropyl-5-(8-methyl-[1,2,4]triazolo[1,5-a]pyridin-6-yl)-4H-thieno[3,2-b]pyrrole]	110 nM	114 nM
Cc1cc(-c2[nH]c3cc(C(=O)N(C)[C@@H]4CCCNC4)sc3c2C(C)C)cn2ncnc12 [Example 153]	2.4 nM	6.5 nM
Cc1cc(-c2[nH]c3cc(C4CCCNC4)sc3c2C(C)C)cn2ncnc12 (stereo not drawn) [Example 155]	4.8 nM	5.7 nM
CCN1C[C@@H](N(C)C(=O)c2cc3[nH]c(-c4cn5ncnc5c(C)c4C)c(C(C)C)c3s2)C[C@@H](C(F)(F)F)C1 [Example 274, 5-(7,8-dimethyl-[1,2,4]triazolo[1,5-a]pyridin-6-yl)-N-((3S,5R)-1-ethyl-5-(trifluoromethyl)piperidin-3-yl)-6-isopropyl-N-methyl-4H-thieno[3,2-b]pyrrole-2-carboxamide]	360 nM	70.7 nM
Cc1cc(-c2[nH]c3cc(C4CC4C(=O)N4CCN(CCO)CC4)sc3c2C(C)C)cn2ncnc12 (stereo not drawn) [Example 306]	22.7 nM	25 nM
Cc1cc(-c2[nH]c3cc(C(=O)N(C)[C@H]4CCN(CC(N)=O)C4)sc3c2C(C)C)cn2ncnc12 [Example 179]	12.5 nM	33 nM
Cc1cc(-c2[nH]c3cc(C4=NC5(CCN(CC(N)=O)CC5)CO4)sc3c2C(C)C)cn2ncnc12 [Example 165]	1.7 nM	116 nM
Cc1cc(-c2[nH]c3cc(-c4cnc5c(c4)CCNC5)sc3c2C(C)C)cn2ncnc12 [Example 218]	3.3 nM	1 nM
Cc1cc(-c2[nH]c3cc(C(=O)N4CCNC(=O)C4)sc3c2C(C)C)cn2ncnc12 [Example 40, 4-[6-isopropyl-5-(8-methyl-[1,2,4]triazolo[1,5-a]pyridin-6-yl)-4H-thieno[3,2-b]pyrrole-2-carbonyl]piperazin-2-one]	17.8 nM	115 nM
Cc1cc(-c2[nH]c3cc(C4CCN(CC(N)=O)C5(CCC5)C4)sc3c2C(C)C)cn2ncnc12 (stereo not drawn) [Example 301]	52 nM	217 nM
Cc1cc(-c2[nH]c3cc(C(=O)N(C4CCC4)C4CCN(CC(N)=O)CC4)sc3c2C(C)C)cn2ncnc12 [Example 167]	14 nM	52.7 nM
Cc1cc(-c2[nH]c3cc(-c4cnn5c4CNCC5)sc3c2C(C)C)cn2ncnc12 [Example 219]	34.9 nM	4.6 nM
Cc1cc(-c2[nH]c3cc(C(=O)N(C)[C@@H]4CCNC4)sc3c2C(C)C)cc(C)n1 [Example 22]	50.1 nM	94 nM
Cc1c(-c2[nH]c3cc(-c4cnc5c(c4)CNCC5)sc3c2C(C)C)cn2ncnc2c1C [Example 222]	3.1 nM	0.7 nM
Cc1cc(-c2[nH]c3cc(C(=O)N4CCC[C@H]4CN4CCCC4)sc3c2C(C)C)cn2ncnc12 [Example 97]	12.9 nM	32.6 nM

Compounds with a lower EC50 [1], results first:

EC50 [1]	EC50 [2]	Compound
1.5 nM	23.8 nM	Cc1cc(-c2[nH]c3cc(C4CCN(C(=O)C5CNC5)CC4)sc3c2C(C)C)cn2ncnc12 [Example 202]
1.3 nM	2.7 nM	Cc1cc(-c2[nH]c3cc(C(=O)N(C)C4CCN(CCO)CC4)sc3c2C(C)C)cn2ncnc12 [Example 141]
1.2 nM	0.3 nM	Cc1cc(-c2[nH]c3cc(C(=O)N4CCN[C@@H](C)C4)sc3c2C(C)C)cn2ncnc12 [Example 125]
1 nM	5.4 nM	Cc1cc(-c2[nH]c3cc(-c4nnc(C5CCNCC5)s4)sc3c2C(C)C)cn2ncnc12 [Example 48, 6-isopropyl-5-(8-methyl-[1,2,4]triazolo[1,5-a]pyridin-6-yl)-2-(5-(piperidin-4-yl)-1,3,4-thiadiazol-2-yl)-4H-thieno[3,2-b]pyrrole]
0.9 nM	2.6 nM	Cc1cc(-c2[nH]c3cc(C(=O)N4CCN[C@@H](CO)C4)sc3c2C(C)C)cn2ncnc12 [Example 122]
0.82 nM	5.56 nM	Cc1cc(-c2[nH]c3cc(C4CCNCC4(C)C)sc3c2C(C)C)cn2ncnc12 (stereo not drawn) [Example 293]
0.6 nM	1.6 nM	Cc1cc(-c2[nH]c3cc(-c4cnn(C5CCNC5)c4)sc3c2C(C)C)cn2ncnc12 (stereo not drawn) [Example 226]
0.57 nM	1.82 nM	Cc1cc(-c2[nH]c3cc(C4CCC5(C4)CN(CC(N)=O)C5)sc3c2C(C)C)cn2ncnc12 (single isomer, unassigned) [Example 311, 2-(6-(6-Isopropyl-5-(8-methyl-[1,2,4]triazolo[1,5-a]pyridin-6-yl)-4H-thieno[3,2-b]pyrrol-2-yl)-2-azaspiro[3.4]octan-2-yl)acetamide]
0.31 nM	11.2 nM	Cc1cc(-c2[nH]c3cc(C4CCC(C(=O)N5CCNCC5)CC4)sc3c2C(C)C)cn2ncnc12 (stereo not drawn) [Example 300]
0.3 nM	2.3 nM	Cc1cc(-c2[nH]c3cc(-c4cnn(C5CCNCC5)c4)sc3c2C(C)C)cn2ncnc12 [Example 215]
0.2 nM	6 nM	Cc1nc(N2CCNCC2)ccc1-c1cc2[nH]c(-c3cc(C)c4ncnn4c3)c(C(C)C)c2s1 [Example 217]
0.19 nM	5.93 nM	Cc1cc(-c2[nH]c3cc(C4CC5CN(CC(N)=O)CC5C4)sc3c2C(C)C)cn2ncnc12 (stereo not drawn) [Example 289]
0.18 nM	1.36 nM	Cc1cc(-c2[nH]c3cc(C4CCC5(C4)CN(CC(N)=O)C5)sc3c2C(C)C)cn2ncnc12 (single isomer, unassigned) [Example 310, 2-(6-(6-Isopropyl-5-(8-methyl-[1,2,4]triazolo[1,5-a]pyridin-6-yl)-4H-thieno[3,2-b]pyrrol-2-yl)-2-azaspiro[3.4]octan-2-yl)acetamide]
0.09 nM	7.49 nM	Cc1cc(-c2[nH]c3cc([C@@H]4C[C@H]5CC[C@@H](C4)N5)sc3c2C(C)C)cn2ncnc12 [Example 307, 2-((1R,3s,5S)-8-azabicyclo[3.2.1]octan-3-yl)-6-isopropyl-5-(8-methyl-[1,2,4]triazolo[1,5-a]pyridin-6-yl)-4H-thieno[3,2-b]pyrrole]
